# Measurements from patent US8192962B2, “Processes for detecting toxic substances” (Daikin Industries, Ltd., priority 2001, dated 2012).
# System: Mitochondria-located protein genes
# Test: DNA chip mRNA expression in yeast, mitochondria-located protein genes (Table 2)
# Format: cell-based, Saccharomyces cerevisiae S288C
# Details: cells incubated two hours with the chemical substance
# Procedure, shortened: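 In this screen, yeast in logarithmic growth are challenged for two hours with a toxic substance at a non-lethal inhibitory concentration. Their mRNA, converted to Cy3- or Cy5-labeled cDNA, hybridizes at 65° C. to a chip spanning every yeast gene, and expression is expressed as a ratio to untreated cells.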
compound,measurement,setting,value
"CN(C)C(=S)SSC(=S)N(C)C [(10), Tetramethylthiuram disulfide]",The level of expressed mRNA in the presence of chemical substance/The level of expressed mRNA in the absence of chemical substance,yeast gene YAL039C,2.2
same,The level of expressed mRNA in the presence of chemical substance/The level of expressed mRNA in the absence of chemical substance,yeast gene YBL022C,1.2
same,The level of expressed mRNA in the presence of chemical substance/The level of expressed mRNA in the absence of chemical substance,yeast gene YBL030C,0.9
same,The level of expressed mRNA in the presence of chemical substance/The level of expressed mRNA in the absence of chemical substance,yeast gene YBL038W,1.5
same,The level of expressed mRNA in the presence of chemical substance/The level of expressed mRNA in the absence of chemical substance,yeast gene YBL099W,0.7
same,The level of expressed mRNA in the presence of chemical substance/The level of expressed mRNA in the absence of chemical substance,yeast gene YBR003W,1.3
same,The level of expressed mRNA in the presence of chemical substance/The level of expressed mRNA in the absence of chemical substance,yeast gene YBR044C,1.2
same,The level of expressed mRNA in the presence of chemical substance/The level of expressed mRNA in the absence of chemical substance,yeast gene YBR091C,1.6
same,The level of expressed mRNA in the presence of chemical substance/The level of expressed mRNA in the absence of chemical substance,yeast gene YBR122C,1.4
same,The level of expressed mRNA in the presence of chemical substance/The level of expressed mRNA in the absence of chemical substance,yeast gene YBR185C,1.6
same,The level of expressed mRNA in the presence of chemical substance/The level of expressed mRNA in the absence of chemical substance,yeast gene YBR221C,1.3
same,The level of expressed mRNA in the presence of chemical substance/The level of expressed mRNA in the absence of chemical substance,yeast gene YBR251W,1.1
same,The level of expressed mRNA in the presence of chemical substance/The level of expressed mRNA in the absence of chemical substance,yeast gene YBR282W,0.9
same,The level of expressed mRNA in the presence of chemical substance/The level of expressed mRNA in the absence of chemical substance,yeast gene YCL057W,2.1
same,The level of expressed mRNA in the presence of chemical substance/The level of expressed mRNA in the absence of chemical substance,yeast gene YCR046C,1.4
same,The level of expressed mRNA in the presence of chemical substance/The level of expressed mRNA in the absence of chemical substance,yeast gene YCR083W,1.8
same,The level of expressed mRNA in the presence of chemical substance/The level of expressed mRNA in the absence of chemical substance,yeast gene YDL067C,0.9
same,The level of expressed mRNA in the presence of chemical substance/The level of expressed mRNA in the absence of chemical substance,yeast gene YDL181W,0.8
same,The level of expressed mRNA in the presence of chemical substance/The level of expressed mRNA in the absence of chemical substance,yeast gene YDL198C,2.7
same,The level of expressed mRNA in the presence of chemical substance/The level of expressed mRNA in the absence of chemical substance,yeast gene YDR079W,0.8
same,The level of expressed mRNA in the presence of chemical substance/The level of expressed mRNA in the absence of chemical substance,yeast gene YDR178W,0.8
same,The level of expressed mRNA in the presence of chemical substance/The level of expressed mRNA in the absence of chemical substance,yeast gene YDR231C,1.4
same,The level of expressed mRNA in the presence of chemical substance/The level of expressed mRNA in the absence of chemical substance,yeast gene YDR258C,13.3
same,The level of expressed mRNA in the presence of chemical substance/The level of expressed mRNA in the absence of chemical substance,yeast gene YDR298C,1.6
same,The level of expressed mRNA in the presence of chemical substance/The level of expressed mRNA in the absence of chemical substance,yeast gene YDR347W,1.6
same,The level of expressed mRNA in the presence of chemical substance/The level of expressed mRNA in the absence of chemical substance,yeast gene YDR377W,0.9
same,The level of expressed mRNA in the presence of chemical substance/The level of expressed mRNA in the absence of chemical substance,yeast gene YDR529C,0.6
same,The level of expressed mRNA in the presence of chemical substance/The level of expressed mRNA in the absence of chemical substance,yeast gene YEL024W,0.6
same,The level of expressed mRNA in the presence of chemical substance/The level of expressed mRNA in the absence of chemical substance,yeast gene YEL039C,1.2
same,The level of expressed mRNA in the presence of chemical substance/The level of expressed mRNA in the absence of chemical substance,yeast gene YER178W,1.3
same,The level of expressed mRNA in the presence of chemical substance/The level of expressed mRNA in the absence of chemical substance,yeast gene YFL016C,2.9
same,The level of expressed mRNA in the presence of chemical substance/The level of expressed mRNA in the absence of chemical substance,yeast gene YGL018C,1.4
same,The level of expressed mRNA in the presence of chemical substance/The level of expressed mRNA in the absence of chemical substance,yeast gene YGL187C,0.6
same,The level of expressed mRNA in the presence of chemical substance/The level of expressed mRNA in the absence of chemical substance,yeast gene YGL191W,1.3
same,The level of expressed mRNA in the presence of chemical substance/The level of expressed mRNA in the absence of chemical substance,yeast gene YGR008C,2.4
same,The level of expressed mRNA in the presence of chemical substance/The level of expressed mRNA in the absence of chemical substance,yeast gene YGR028W,2.0
same,The level of expressed mRNA in the presence of chemical substance/The level of expressed mRNA in the absence of chemical substance,yeast gene YGR062C,1.4
same,The level of expressed mRNA in the presence of chemical substance/The level of expressed mRNA in the absence of chemical substance,yeast gene YGR076C,1.8
same,The level of expressed mRNA in the presence of chemical substance/The level of expressed mRNA in the absence of chemical substance,yeast gene YGR082W,0.9
same,The level of expressed mRNA in the presence of chemical substance/The level of expressed mRNA in the absence of chemical substance,yeast gene YGR174C,0.7
same,The level of expressed mRNA in the presence of chemical substance/The level of expressed mRNA in the absence of chemical substance,yeast gene YGR244C,1.1
same,The level of expressed mRNA in the presence of chemical substance/The level of expressed mRNA in the absence of chemical substance,yeast gene YHR008C,2.4
same,The level of expressed mRNA in the presence of chemical substance/The level of expressed mRNA in the absence of chemical substance,yeast gene YIL155C,2.9
same,The level of expressed mRNA in the presence of chemical substance/The level of expressed mRNA in the absence of chemical substance,yeast gene YJL096W,1.4
same,The level of expressed mRNA in the presence of chemical substance/The level of expressed mRNA in the absence of chemical substance,yeast gene YJL102W,2.2
same,The level of expressed mRNA in the presence of chemical substance/The level of expressed mRNA in the absence of chemical substance,yeast gene YJL133W,1.4
same,The level of expressed mRNA in the presence of chemical substance/The level of expressed mRNA in the absence of chemical substance,yeast gene YJL166W,1.2
same,The level of expressed mRNA in the presence of chemical substance/The level of expressed mRNA in the absence of chemical substance,yeast gene YJL180C,1.4
same,The level of expressed mRNA in the presence of chemical substance/The level of expressed mRNA in the absence of chemical substance,yeast gene YJR045C,3.0
same,The level of expressed mRNA in the presence of chemical substance/The level of expressed mRNA in the absence of chemical substance,yeast gene YJR077C,0.7
